According to patent publication US12497396B2, “Nitrogen-containing heterocyclic derivatives, method therefor and application therefor as inhibitors of KRAS G12C for the treatment of cancers” (SHANGHAI HANSOH BIOMEDICAL CO., LTD., priority 2019, dated 2025):

Experiments:
CYP2D6 = target: T1, CYP2D6 (Homo sapiens, UniProt P10635); experiment: CYP enzyme single point inhibition, human liver microsomes, 2D6; format: in vitro ADME; conditions: single point method
T1 construct: from tissue; host or cells: human liver microsomes
T1 sequence (P10635 whole entry): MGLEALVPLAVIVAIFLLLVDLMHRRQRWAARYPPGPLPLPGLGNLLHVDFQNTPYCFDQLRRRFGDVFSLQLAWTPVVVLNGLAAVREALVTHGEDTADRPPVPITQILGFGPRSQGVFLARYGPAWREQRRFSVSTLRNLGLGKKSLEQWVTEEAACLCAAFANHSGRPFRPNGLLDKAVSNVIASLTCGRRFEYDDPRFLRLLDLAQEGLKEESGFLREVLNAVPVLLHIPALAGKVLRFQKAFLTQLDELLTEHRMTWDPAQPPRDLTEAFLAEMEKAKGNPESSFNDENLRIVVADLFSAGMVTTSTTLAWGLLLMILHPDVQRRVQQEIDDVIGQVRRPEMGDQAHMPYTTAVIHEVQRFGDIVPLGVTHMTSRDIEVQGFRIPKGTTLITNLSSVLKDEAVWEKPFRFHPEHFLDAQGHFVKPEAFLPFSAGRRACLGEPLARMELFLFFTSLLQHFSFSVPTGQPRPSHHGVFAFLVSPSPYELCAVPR
Procedure: Using human liver microsomal incubation system, the inhibition of CYP450 enzyme subtypes by compounds was rapidly predicted by single point method.
2.5 mM NADPH: 100 mM phosphate buffer was added to 4.165 mg of NADPH (reduced nicotinamide adenine dinucleotide phosphate) to 2 mL. 0.25 mg/mL microsome: 4 mL of 100 mM phosphate buffer was added to 50 μL of 20 mg/mL microsome and mixed well.
The embodiment compound to be tested was weighed and diluted to 10 mM with DMSO and then diluted to 100 μM with 100 mM phosphate buffer.
• 1. In a 96-well plate, 40 μL of liver microsomes, 10 μL of substrate, 10 μL of compound to be tested were pre-incubated for 3 min. • 2. 40 μL of NADPH was added. • 3. 300 μL of acetonitrile termination solution containing internal standard was added at 20 min. • 4. Centrifugal injection.

[1] = test system: human pancreatic cancer cell MiaPaca 2 xenograft; experiment: Tumor inhibition on MiaPaca 2 transplanted tumor (CDX) model; format: in vivo, BALB/c nude mice; conditions: for TGI (%) Day 21 / tumor volume (mm^3, Mean ± SD) Day 21 / ΔT/ΔC(%) Day 21: Day 21, 6 mg/kg QD×3 w oral; for tumor volume (mm^3, Mean ± SD) Day 0: baseline Day 0, 6 mg/kg QD×3 w oral
Procedure: MiaPaca 2 cells were removed from the cell bank, revived and added to DMEM medium (containing 10% FBS, 1% Glu, 1% P/S) and incubated in a CO2 incubator (incubator temperature was 37° C., CO2 concentration was 5%). After the cells were spread to 80-90% of the bottom of the culture flask, the cells were continued to be cultured in the CO2 incubator. The process was repeated until the number of cells met the in vivo pharmacological inoculation requirement, and the cells in logarithmic growth period were collected and counted with an automatic cell counter, resuspended with PBS and Matrigel (volume ratio 1:1) according to the count results, made into a cell suspension (the density was 8×10^7/mL), and placed in an ice box for use.
BALB/c nude mice, female, 6-8 weeks old, weighing about 18-22 g. The mice were kept in an environment free of special pathogens and in a single ventilated cage with 5 mice in each cage. All cages, bedding and water were sterilized before use, and all animals had free access to standard certified commercial laboratory diets. Nude mice were labeled with disposable universal ear tags for mice and rats before the start of the experiment, and the skin of the inoculation site was disinfected with 75% medical alcohol before inoculation, 0.1 mL (containing 8*10^6 cells) of MiaPaca 2 tumor cells were inoculated subcutaneously on the right back of each mouse. When the tumor volume reached 100-200 mm^3, the group administration was started. The tested compounds were administered daily by oral intragastric administration, dosage/frequency (6 mg/kg QD×3 w), and the efficacy of each group at the end of the experiment was shown in Table 29.
The tumor volume (mm^3) was measured with vernier caliper twice a week, the calculation formula was V=[…], wherein D and d were the long and short diameter of the tumor, respectively. The anti-tumor efficacy was determined by dividing the average tumor increased volume of the compound-treated animals by the average tumor increased volume of the untreated animals. The formula of tumor inhibition rate is: TGI (%)=1−[(Vt−V0) administration group/(Vt−V0) solvent control group]*100%. After the experiment, all animals were euthanized.

[2] = Plasma stability, dog plasma; format: in vitro ADME; conditions: for Residual rate (%) 0 min / Residual rate (%) 15 min / Residual rate (%) 30 min / Residual rate (%) 60 min / Residual rate (%) 120 min: dog plasma, 37° C.; for half-life at 0.5 μM: dog, plasma
Procedure: (§1) Animal or human whole blood was collected, then the blood was put into a test tube containing anticoagulant, centrifuged at 3500 rpm for 10 min, and the upper layer of pale yellow plasma was collected. • 2), 10 μM of tested compound (m/M/V=C)
(§2) The compound was weighed, the stock solution was prepared with DMSO and the working solution was prepared with 100 mM phosphate buffer. • 3), 10 μM of positive control (1) Propantheline (Propantheline Mr=449.4 Da)
(§3) • 1) 285 μL of plasma and 15 μL of 10 μM compound (tested compound) were added in turn in a 96-well plate, and incubated at 37° C. • 2) 40 μL was taken out at 0, 15, 30, 60, 90, 120 min, respectively, and 160 μL of acetonitrile termination solution containing internal standard was added. • 3) After centrifugation (3500 rpm, 10 min), 50 μL of supernatant was taken out, and then diluted with 50 μL DDH2O and injected to LC-MS/MS.
(§4) • Instrument: Shimadzu LC-20 AD • Chromatographic column: phenomenex Gemiu® C18 (50*4.6 mm, 5 μM particle size); • mobile phase: A: acetonitrile, B: 0.1% formic acid solution […], 2.0-2.1 min: 90% A→5% A; flow rate: 0.8 mL/min; running time: 5.0 min; injection volume: 5 μL.
(§5) • Instrument: API4000 Liquid Chromatography-Mass Spectrometry, AB, USA; • the ion source was electrospray ionization source (ESI); • the temperature of dry gas (N2) was 500° C.; • electrospray voltage was 5500V; • the detection method was positive ion detection; • the scanning mode was selective response monitoring (MRM). • the scanning time was 0.1 s.

[3] = Plasma stability, rat plasma; format: in vitro ADME; conditions: for Residual rate (%) 0 min / Residual rate (%) 15 min / Residual rate (%) 30 min / Residual rate (%) 60 min / Residual rate (%) 120 min: rat plasma, 37° C.; for half-life at 0.5 μM: rat, plasma
Procedure: as §1, §2, §3, §4, §5

in vitro = in vitro ADME; conditions: for half-life at 0.5 μM: plasma
Procedure: as §1, §2, §3, §4, §5

Row | Compound | IC50 (CYP2D6) | TGI (%) Day 21 [1] | tumor volume (mm^3, Mean ± SD) Day 21 [1] | ΔT/ΔC(%) Day 21 [1] | tumor volume (mm^3, Mean ± SD) Day 0 [1] | Residual rate (%) 0 min [2] | Residual rate (%) 15 min [2] | Residual rate (%) 30 min [2] | Residual rate (%) 60 min [2] | Residual rate (%) 120 min [2] | half-life at 0.5 μM [2] | Residual rate (%) 0 min [3] | Residual rate (%) 15 min [3] | Residual rate (%) 30 min [3] | Residual rate (%) 60 min [3] | Residual rate (%) 120 min [3] | half-life at 0.5 μM [3] | Residual rate (%) 0 min (in vitro; human, 0.5 μM) | Residual rate (%) 15 min (in vitro; human, 0.5 μM) | Residual rate (%) 30 min (in vitro; human, 0.5 μM) | other results
1 | C=CC(=O)N1C[C@H](C)N(c2nc(=O)n(-c3c(SC)ccnc3C(C)C)c3nc(-c4c(O)cccc4F)c(F)cc23)C[C@H]1C (single isomer, unassigned) [Embodiment 114-1] | > 100 nM | 162.36% | 67 ± 34 mm^3 | −62.36% | 177 ± 38 mm^3 | – | – | – | – | – | – | – | – | – | – | – | – | – | – | – | –
2 | C=CC(=O)N1C[C@H](C)N(c2nc(=O)n(-c3c(SC)ccnc3C(C)C)c3nc(-c4c(N)ccc(Cl)c4F)c(Cl)cc23)C[C@H]1C (single isomer, unassigned) [Embodiment 165-1] | 21.2 nM | 176.76% | 41 ± 19 mm^3 | −76.76% | 178 ± 34 mm^3 | 100.00% | 97.71% | 96.32% | 94.86% | 92.49% | 19.6 h | 100.00% | 95.57% | 96.73% | 93.97% | 91.93% | 19.3 h | 100.00% | 102.34% | 100.28% | Residual rate (%) 60 min (in vitro; human, 0.5 μM): 90.27%; Residual rate (%) 120 min (in vitro; human, 0.5 μM): 87.22%; half-life at 0.5 μM (in vitro; human): 8.35 h; Residual rate (%) 0 min (in vitro; mouse, 0.5 μM): 100.00%; Residual rate (%) 15 min (in vitro; mouse, 0.5 μM): 100.58%; Residual rate (%) 30 min (in vitro; mouse, 0.5 μM): 99.52%; Residual rate (%) 60 min (in vitro; mouse, 0.5 μM): 99.64%; Residual rate (%) 120 min (in vitro; mouse, 0.5 μM): 92.32%; half-life at 0.5 μM (in vitro; mouse): 16.9 h
3 | C=CC(=O)N1C[C@H](C)N(c2nc(=O)n(-c3c(SC)ccnc3C(C)C)c3nc(-c4c(O)cccc4F)c(Cl)cc23)C[C@H]1C (single isomer, unassigned) [Embodiment 166-1] | – | – | – | – | – | 100.00% | 99.98% | 98.79% | 93.69% | 86.16% | 8.88 h | 100.00% | 93.20% | 98.32% | 99.08% | 96.46% | 108 h | 100.00% | 99.15% | 94.74% | Residual rate (%) 60 min (in vitro; human, 0.5 μM): 89.14%; Residual rate (%) 120 min (in vitro; human, 0.5 μM): 78.85%; half-life at 0.5 μM (in vitro; human): 5.64 h; Residual rate (%) 0 min (in vitro; mouse plasma, 37° C.): 100.00%; Residual rate (%) 15 min (in vitro; mouse plasma, 37° C.): 105.42%; Residual rate (%) 30 min (in vitro; mouse plasma, 37° C.): 100.02%; Residual rate (%) 60 min (in vitro; mouse plasma, 37° C.): 99.12%; Residual rate (%) 120 min (in vitro; mouse plasma, 37° C.): 85.55%; half-life at 0.5 μM (in vitro; mouse): 7.75 h
